Laboratory results published in patent publication US10314775B2, “Methods of increasing hair growth and improving hair appearance” (MyMD Pharmaceuticals, Inc., priority 2016, dated 2019).

Experiments:
MAO-B = target: T1, MAO-B (Homo sapiens, UniProt P27338); test: MAO-Glo luminescent assay, MAO-B inhibition; type: biochemical; settings: FIG. 2; compared with myosmine, anatabine, anabasine, nornicotine
T1 construct: purchased
T1 sequence (P27338 1-520): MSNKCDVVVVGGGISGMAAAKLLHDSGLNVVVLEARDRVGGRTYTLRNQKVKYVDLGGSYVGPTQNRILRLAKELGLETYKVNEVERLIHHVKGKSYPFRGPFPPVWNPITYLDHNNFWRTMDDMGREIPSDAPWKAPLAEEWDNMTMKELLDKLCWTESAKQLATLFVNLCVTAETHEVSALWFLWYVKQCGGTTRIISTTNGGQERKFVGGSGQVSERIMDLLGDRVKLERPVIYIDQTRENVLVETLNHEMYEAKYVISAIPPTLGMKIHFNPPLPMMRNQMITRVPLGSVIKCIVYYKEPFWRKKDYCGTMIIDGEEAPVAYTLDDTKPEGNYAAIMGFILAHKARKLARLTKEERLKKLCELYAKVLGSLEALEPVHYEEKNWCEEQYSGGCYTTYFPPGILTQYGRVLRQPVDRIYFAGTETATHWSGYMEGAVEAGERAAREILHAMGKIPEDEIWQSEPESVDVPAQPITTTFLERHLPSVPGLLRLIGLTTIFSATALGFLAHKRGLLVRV
Text: (§1) This example describes experiments for determining monoamine oxidase (MAO) inhibition for isomyosmine and other alkaloids. MAOs are enzymes located on the outer membrane of mitochondria and are involved in the catabolism of monoamine neurotransmitters. There are two well-characterized isoenzymes: MAO-A, which predominantly catabolizes serotonin and norepinephrine, and MAO-B, which preferentially catabolizes benzylamine and phenylethylamine. Dopamine and tyramine are metabolized by both isoforms.
To detect the activity of MAO, a luminescent method (MAO-Glo Assay kit, from Promega, Cat # V1401) was used. In this method, a MAO substrate (a derivative of beetle luciferin provided in the kit) is mixed with the compound to be tested (in this case, myosmine and control compounds). Then, the MAO enzymes (either A or B, purchased separately) are added to the mixture and incubated with the reaction for 1 hour at room temperature. The MAO enzymes, if not inhibited by the test compound, will convert the substrate into methyl ester luciferin. Finally, a luciferin detection reagent (provided by the kit) is added (20 minutes at room temperature) to stop the MAO reaction and convert methyl ester luciferin into D-luciferin. […] The luminescent signal is measured and recorded using a luminometer. […]

male-pattern baldness = test: Oral treatment of a person with male-pattern baldness (scalp photographs); type: in vivo, human; settings: oral 60 mg/day, photographs after three weeks and 90 days of treatment (FIG. 3-5)
Experimental: A person and approximately 75 kg in weight was experiencing male-pattern baldness. The individual was orally administered isomyosmine at a dosage of 60 mg/day over the course of three weeks. FIG. 3 is a photograph of the scalp of the individual before treatment. FIG. 4 is a photograph of the scalp of the individual after three weeks of treatment (and a haircut). FIG. 5 is a photograph of the scalp of the individual after 90 days of treatment.

MAO-A = target: T2, MAO-A (Homo sapiens, UniProt P21397); test: MAO-Glo luminescent assay, MAO-A inhibition; type: biochemical; settings: FIG. 1
T2 construct: purchased
T2 sequence (P21397 1-527): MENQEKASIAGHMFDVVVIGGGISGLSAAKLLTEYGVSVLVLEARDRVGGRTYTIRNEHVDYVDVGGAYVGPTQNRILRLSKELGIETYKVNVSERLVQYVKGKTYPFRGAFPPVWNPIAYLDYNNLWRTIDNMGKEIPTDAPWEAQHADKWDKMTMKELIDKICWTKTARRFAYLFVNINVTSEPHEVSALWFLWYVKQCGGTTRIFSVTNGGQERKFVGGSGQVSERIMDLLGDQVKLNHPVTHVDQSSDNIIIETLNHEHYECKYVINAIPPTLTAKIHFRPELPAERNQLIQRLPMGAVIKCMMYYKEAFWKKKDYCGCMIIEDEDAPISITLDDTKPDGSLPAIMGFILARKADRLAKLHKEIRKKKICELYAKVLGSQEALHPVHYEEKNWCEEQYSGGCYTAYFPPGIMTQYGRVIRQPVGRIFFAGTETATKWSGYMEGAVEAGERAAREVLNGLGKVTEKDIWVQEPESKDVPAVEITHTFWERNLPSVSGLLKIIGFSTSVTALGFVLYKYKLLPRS
Text: as §1
To detect the activity of MAO, a luminescent method (MAO-Glo Assay kit, from Promega, Cat # V1401) was used. In this method, a MAO substrate (a derivative of beetle luciferin provided in the kit) is mixed with the compound to be tested (in this case, myosmine and control compounds). Then, the MAO enzymes (either A or B, purchased separately) are added to the mixture and incubated with the reaction for 1 hour at room temperature. The MAO enzymes, if not inhibited by the test compound, will convert the substrate into methyl ester luciferin. Finally, a luciferin detection reagent (provided by the kit) is added (20 minutes at room temperature) to stop the MAO reaction and convert methyl ester luciferin into D-luciferin. […] The luminescent signal is measured and recorded using a luminometer.
Anatabine was obtained from Emerson Resources, Norristown, Pa.

C1=NC(c2cccnc2)CC1 (stereo not shown) [isomyosmine, 3-(3,4-dihydro-2H-pyrrol-2-yl)-pyridine]
inhibiting the activity of MAO-B, comparison of curves (MAO-B): the most potent among the five alkaloids tested | hair growth on the scalp (male-pattern baldness): significant new growth of healthy, dark-colored hair on the scalp | inhibition at 2000 µM (MAO-A; 2 mM concentration (2,000 micromolar), read-out: inhibition of the enzymatic activity of MAO-A): ~50% | inhibiting the enzymatic activity of MAO-A, comparison of curves (MAO-A; compared with myosmine, anatabine, anabasine, nornicotine, clorgyline positive control): the most potent of the five
